The source of these data is US8765779B2, “Tricyclic derivatives and their pharmaceutical use and compositions” (Cephalon, Inc., priority 2009, dated 2014).

Some results are limits rather than exact numbers.

The assay concerns the target T1, human 5-HT6 receptor (Homo sapiens, UniProt P50406).
T1 construct: host or cells: CHO-K1 cells, stably transfected; membranes prepared in house
The experiment in a line: Human 5-HT6 Receptor Binding Assay ([3H]LSD displacement, scintillation beads). Particulars: membranes of CHO-K1 cells with recombinant human 5-HT6, 4 nM [3H]LSD; Table 1, class symbols; read-out: h5-HT6 (Ki).

T1 sequence (P50406 whole entry): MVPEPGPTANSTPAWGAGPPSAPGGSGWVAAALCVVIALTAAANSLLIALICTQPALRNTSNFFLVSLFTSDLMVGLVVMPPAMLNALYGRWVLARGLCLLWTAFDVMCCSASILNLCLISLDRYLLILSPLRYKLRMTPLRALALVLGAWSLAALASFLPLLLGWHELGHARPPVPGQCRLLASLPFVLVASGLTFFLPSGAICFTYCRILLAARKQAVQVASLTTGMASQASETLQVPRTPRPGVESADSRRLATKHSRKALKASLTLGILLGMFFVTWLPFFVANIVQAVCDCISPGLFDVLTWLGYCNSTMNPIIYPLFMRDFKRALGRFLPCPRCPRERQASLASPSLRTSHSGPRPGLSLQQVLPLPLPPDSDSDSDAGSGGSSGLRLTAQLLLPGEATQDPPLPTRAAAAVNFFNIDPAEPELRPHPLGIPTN

As for `COc1ccc(S(=O)(=O)c2ccc3c(c2)C2CCNCC2O3)cc1OC` (centres unmarked) [Example 171], the Ki (as a rule, the equilibrium dissociation constant of an inhibitor or competing ligand from its target) was greater than 1000 nM.
Take `O=S(=O)(c1ccc(Cl)cc1)c1ccc2oc3c(c2c1)CCNC3` [Example 250]: the inhibitory constant (Ki) is less than 500 nM.
With `CCN1CCC2(C)c3cc(OS(=O)(=O)Cc4ccccc4)ccc3OC2C1` (centres unmarked) [Example 810, 2-Ethyl-4a-methyl-1,2,3,4,4a,9a-hexahydro[1]benzofuro[2,3-c]pyridin-6-yl phenylmethanesulfonate] the figure was greater than 1000 nM.
For `O=S(=O)(c1cc(Cl)cc(Cl)c1)c1ccc2c3c(oc2c1)CNCC3` [Example 211, 7-[(3,5-dichlorophenyl)sulfonyl]-1,2,3,4-tetrahydro[1]benzofuro[2,3-c]pyridine], the Ki is less than 500 nM.
On to `O=S(=O)(c1cccc(Br)c1)c1ccc2c3c(oc2c1)CNCC3` [Example 212, 7-[(3-bromophenyl)sulfonyl]-1,2,3,4-tetrahydro[1]benzofuro[2,3-c]pyridine], for which the inhibition constant (Ki) is less than 500 nM.
In the case of `CC1(C)NCCc2c1oc1cc(S(=O)(=O)c3cccnc3C(F)(F)F)ccc21` [Example 378], the Ki was less than 500 nM.
With `COc1cccc(S(=O)(=O)c2ccc3oc4c(c3c2)CCNC4)c1` [Example 246] the figure was less than 500 nM; with `O=S(=O)(c1ccccc1)c1ccc2c(c1)OC1CN(Cc3ccccc3)CCC21` (centres unmarked) [Example 611], less than 500 nM.
With `O=S(=O)(c1cccc(F)c1)c1ccc2c3c(oc2c1)C1(CCOCC1F)NCC3` (single isomer, unassigned) [Example 54, 3′-Fluoro-7-[(3-fluorophenyl)sulfonyl]-2′,3,3′,4,5′,6′-hexahydro-2H-spiro[1-benzofuro[2,3-c]pyridine-1,4′-pyran]] the figure was less than 500 nM.
As for `CC1(C)NCCc2c1oc1cc(S(=O)(=O)c3cncc(F)c3)ccc21` [Example 381], the figure is less than 500 nM.
On to `O=S(=O)(Oc1ccc2c(c1)OC1CNCCC21)c1ccc(-c2cnco2)cc1` (centres unmarked) [Example 672], for which the Ki is less than 500 nM.
`O=S(=O)(Nc1ccc2c(c1)C1CCNCC1O2)c1cccc(Cl)c1Cl` (centres unmarked) [Example 829]: the Ki is less than 500 nM.
On to `CC(=O)Nc1ccc(S(=O)(=O)c2ccc3oc4c(c3c2)CCNC4)cc1` [Example 272], for which the inhibition constant (Ki) fell in the range of 500 to 1000 nM.
With `O=S(=O)(c1ccc(Cl)cc1)c1ccc2c3c(oc2c1)CNCC3` [Example 203] the figure was less than 500 nM; with `CC1(C)NCCc2c1oc1cc(S(=O)(=O)c3cccnc3N3CCOCC3)ccc21` [Example 368], less than 500 nM; with `COc1ccc(S(=O)(=O)Oc2ccc3c(c2)C2CCNCC2O3)cc1OC` (centres unmarked) [Example 732], 500 to 1000 nM.
In the case of `CCN1CCC2c3ccc(OS(=O)(=O)c4ccc(Cl)cc4)cc3OC2C1` (centres unmarked) [Example 812], the Ki is greater than 1000 nM.
`O=S(=O)(Nc1cccc(F)c1F)c1ccc2c(c1)C1CCNCC1O2` (centres unmarked) [Example 842]: the Ki was greater than 1000 nM.
As for `O=S(=O)(c1cccc(Cl)c1)c1ccc2c3c(oc2c1)CN(CCO)CC3` [Example 599], the figure is less than 500 nM.
Consider `O=S(=O)(c1ccccc1)c1ccc2c3c([nH]c2c1)C1(CCOC1)NCC3` (stereo not drawn) [Example 546, 7-(Phenylsulfonyl)-2,3,4,4′,5′,9-hexahydrospiro[beta-carboline-1,3′-furan]trifluoroacetate], for which the Ki is less than 500 nM.
As for `O=S(=O)(c1ccc(-c2ccccc2)cc1)c1ccc2c(c1)OC1CNCCC21` (centres unmarked) [Example 145], the figure is greater than 1000 nM.
With `O=S(=O)(c1cc(F)cc(OCC2CCOCC2)c1)c1ccc2c(c1)OC1CNCCC21` (centres unmarked) [Example 591] the figure was less than 500 nM; with `O=S(=O)(c1ccc2c(c1)OC1CNCCC21)c1c(F)c(F)cc(F)c1F` (centres unmarked) [Example 150], less than 500 nM; with `CC12CCNCC1Oc1cc(S(=O)(=O)c3cccc4c3OCCO4)ccc12` (centres unmarked) [Example 468], less than 500 nM.
With `O=S(=O)(Oc1ccc2c(c1)C1CCNCC1O2)c1csc(C(F)(F)F)c1-c1ccccc1` (centres unmarked) [Example 747] the figure was 500 to 1000 nM; with `COc1c(F)cc(F)cc1S(=O)(=O)c1ccc2c(c1)OC1CNCCC21C` (centres unmarked) [Example 486], less than 500 nM.
